These results are taken from US12590091B2, “1H-pyrrolo[3,2-C]pyridine and 1H-pyrrolo[2,3-C]pyridine derivatives as TLR9 inhibitors for the treatment of fibrosis” (BRISTOL-MYERS SQUIBB COMPANY, priority 2020, dated 2026).

Broadly, the IC50 is the point on the concentration scale where inhibition reaches its midpoint. The low end stands for greater potency, the high end for weaker potency.

In this assay the target is T1, human TLR8 (Homo sapiens, UniProt Q9NR97).
T1 construct: host or cells: HEK-Blue cells
T1 sequence (Q9NR97 27-1041): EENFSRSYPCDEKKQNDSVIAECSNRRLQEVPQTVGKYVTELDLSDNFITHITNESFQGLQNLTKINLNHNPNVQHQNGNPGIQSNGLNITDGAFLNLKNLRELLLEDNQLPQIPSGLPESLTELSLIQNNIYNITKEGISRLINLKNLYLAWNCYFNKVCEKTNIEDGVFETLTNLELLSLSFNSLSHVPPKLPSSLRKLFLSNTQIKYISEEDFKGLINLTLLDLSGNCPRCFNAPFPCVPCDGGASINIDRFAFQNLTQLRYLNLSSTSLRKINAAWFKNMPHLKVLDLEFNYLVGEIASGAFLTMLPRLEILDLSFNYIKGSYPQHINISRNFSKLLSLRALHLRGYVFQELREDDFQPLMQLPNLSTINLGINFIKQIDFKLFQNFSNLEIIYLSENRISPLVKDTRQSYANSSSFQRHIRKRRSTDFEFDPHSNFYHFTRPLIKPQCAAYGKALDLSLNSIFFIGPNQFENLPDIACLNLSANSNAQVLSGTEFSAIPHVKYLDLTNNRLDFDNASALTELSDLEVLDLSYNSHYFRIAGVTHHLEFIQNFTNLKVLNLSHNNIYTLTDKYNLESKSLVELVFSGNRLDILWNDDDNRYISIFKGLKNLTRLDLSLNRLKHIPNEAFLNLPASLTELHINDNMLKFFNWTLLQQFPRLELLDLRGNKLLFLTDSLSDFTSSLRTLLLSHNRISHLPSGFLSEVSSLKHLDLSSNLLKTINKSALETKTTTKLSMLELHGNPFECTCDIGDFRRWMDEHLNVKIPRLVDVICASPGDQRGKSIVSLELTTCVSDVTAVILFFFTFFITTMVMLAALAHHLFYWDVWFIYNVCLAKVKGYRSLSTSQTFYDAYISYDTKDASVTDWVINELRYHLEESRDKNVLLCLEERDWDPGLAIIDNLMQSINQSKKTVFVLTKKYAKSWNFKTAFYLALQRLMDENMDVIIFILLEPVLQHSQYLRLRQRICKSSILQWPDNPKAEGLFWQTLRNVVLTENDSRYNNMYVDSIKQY
Nature of the assay: TLR8 inhibition reporter assay (HEK-Blue cells, SEAP reporter). The assay is classed as cell-based. The conditions noted are these: HEK-Blue cells overexpressing human TLR8, stimulated with R848 15.9 μM, 22 hour incubation. The protocol:
TLR7/8/9 Inhibition Reporter Assays
HEK-Blue™-cells (Invivogen) overexpressing human TLR7, TLR8 or TLR9 receptors were used for screening inhibitors of these receptors using an inducible SEAP (secreted embryonic alkaline phosphatase) reporter gene under the control of the IFN-β minimal promoter fused to five NF-κB and AP-1-binding sites. Briefly, cells are seeded into Greiner 384 well plates (15000 cells per well for TLR7, 20,000 for TLR8 and 25,000 for TLR9) and then treated with test compounds in DMSO to yield a final dose response concentration range of 0.05 nM-50 μM. After a 30 minute compound pre-treatment at room temperature, the cells are then stimulated with a TLR7 ligand (gardiquimod at a final concentration of 7.5 μM), TLR8 ligand (R848 at a final concentration of 15.9 μM) or TLR9 ligand (ODN2006 at a final concentration of 5 nM) to activate NF-κB and AP-1 which induce the production of SEAP. After a 22 hour incubation at 37° C., 5% CO2, SEAP levels are determined with the addition of HEK-Blue™ Detection reagent (Invivogen), a cell culture medium that allows for detection of SEAP, according to manufacturer's specifications. The percent inhibition is determined as the % reduction in the HEK-Blue signal present in wells treated with agonist plus DMSO alone compared to wells treated with a known inhibitor.
In general terms: A reporter such as luciferase makes a cellular process visible.
Regarding `COc1ccc(-c2[nH]c3cnc(-c4ccc(N5CCN(C(C)C)CC5)cc4)cc3c2C)cc1OC` [Example 1, 2-(3,4-Dimethoxyphenyl)-5-(4-(4-isopropylpiperazin-1-yl)phenyl)-3-methyl-1H-pyrrolo[2,3-c]pyridine], inhibition was half-maximal at 21 µM (IC50).

`COc1ccc(-c2c(C)[nH]c3cnc(-c4ccc(N5CCN(C(C)C)CC5)cc4)cc23)cc1OC` [Example 2, 3-(3,4-dimethoxyphenyl)-5-(4-(4-isopropylpiperazin-1-yl)phenyl)-2-methyl-1H-pyrrolo[2,3-c]pyridine] displayed an IC50 of 29 µM. This IC50 and that of the molecule before are within 1.5-fold of each other.

As for `COc1ccc(-c2c(C)n(C)c3cnc(-c4ccc(N5CCN(CC(C)(C)O)CC5)cc4)cc23)cc1OC` [Example 3, 1-(4-(4-(3-(3,4-Dimethoxyphenyl)-1,2-dimethyl-1H-pyrrolo[2,3-c]pyridin-5-yl)phenyl)piperazin-1-yl)-2-methylpropan-2-ol], the IC50 amounted to 37.7 µM.

Molecule `COc1ccc(-c2c(C)[nH]c3cnc(C4CCN(C5CCN(C(=O)OCc6ccccc6)CC5)CC4)cc23)cc1OC` [Example 4, Benzyl 4-(3-(3,4-dimethoxyphenyl)-2-methyl-1H-pyrrolo[2,3-c]pyridin-5-yl)-[1,4′-bipiperidine]-1′-carboxylate] yielded an IC50 of 23.5 µM.

Take `COc1ccc(-c2c(C)[nH]c3cnc(C4CCN(C(=O)C5CCN(C6CC6)CC5)CC4)cc23)cc1OC` [Example 5, (1-Cyclopropylpiperidin-4-yl)(4-(3-(3,4-dimethoxyphenyl)-2-methyl-1H-pyrrolo[2,3-c]pyridin-5-yl)piperidin-1-yl)methanone]: the IC50 was more than 50 µM.

With `COc1ccc(-c2c(C)[nH]c3cnc(C4CCN(c5cc(C)nc(C)c5)CC4)cc23)cc1OC` [Example 6, 3-(3,4-Dimethoxyphenyl)-5-(1-(2,6-dimethylpyridin-4-yl)piperidin-4-yl)-2-methyl-1H-pyrrolo[2,3-c]pyridine], the IC50 was found to be 23.3 µM. This lies in the double-digit micromolar range.

In the case of `COc1ccc(-c2cc3cnc(-c4ccc(N5CCN(CC6CC6)CC5)cc4)cc3n2C)cc1OC` [Example 9, 6-(4-(4-(Cyclopropylmethyl)piperazin-1-yl)phenyl)-2-(3,4-dimethoxyphenyl)-1-methyl-1H-pyrrolo[3,2-c]pyridine], the midpoint of inhibition, the IC50, lay at 1.5 µM.

As to `COc1ccc(-c2cc3cnc(-c4ccc(N5CCN(C6CCC6)CC5)cc4)cc3n2C)cc1OC` [Example 10, 6-(4-(4-Cyclobutylpiperazin-1-yl)phenyl)-2-(3,4-dimethoxyphenyl)-1-methyl-1H-pyrrolo[3,2-c]pyridine], the IC50 turned out to be 5.2 µM.

`COc1ccc(-c2c(C)c3cc(C4CCN(C5CCN(CC(C)C)CC5)CC4)ncc3n2C)cc1OC` [Example 13, 2-(3,4-dimethoxyphenyl)-5-(1′-isobutyl-[1,4′-bipiperidin]-4-yl)-1,3-dimethyl-1H-pyrrolo[2,3-c]pyridine]: the IC50 was more than 50 µM.

As for `COc1ccc(-c2c(C)[nH]c3cnc(C4CCN(C5CCN(C(=O)c6ccccc6)CC5)CC4)cc23)cc1OC` [Example 14, (4-(3-(3,4-dimethoxyphenyl)-2-methyl-1H-pyrrolo[2,3-c]pyridin-5-yl)-[1,4′-bipiperidin]-1′-yl) (phenyl)methanone], the half-maximal inhibitory concentration (IC50) is more than 50 µM.

The molecule `COc1ccc(-c2c(C)[nH]c3cnc(C4CCN(C5CCN(C(=O)C(C)C)CC5)CC4)cc23)cc1OC` [Example 15, 1-(4-(3-(3,4-dimethoxyphenyl)-2-methyl-1H-pyrrolo[2,3-c]pyridin-5-yl)-[1,4′-bipiperidin]-1′-yl)-2-methylpropan-1-one] had an IC50 of more than 50 µM.

In turn, `COc1ccc(-c2c(C)[nH]c3cnc(C4CCN(C(=O)CN5CCCCC5)CC4)cc23)cc1OC` [Example 16, 1-(4-(3-(3,4-dimethoxyphenyl)-2-methyl-1H-pyrrolo[2,3-c]pyridin-5-yl)piperidin-1-yl)-2-(piperidin-1-yl)ethan-1-one] came in with an IC50 of 47.9 µM.

`COc1ccc(-c2c(C)n(C)c3cnc(C4CCN(C5CCN(CC(C)C)CC5)CC4)cc23)cc1OC` [Example 17, 3-(3,4-dimethoxyphenyl)-5-(1′-isobutyl-[1,4′-bipiperidin]-4-yl)-1,2-dimethyl-1H-pyrrolo[2,3-c]pyridine] showed an IC50 of more than 50 µM.

`COc1ccc(-c2c(C)n(C)c3cnc(C4CCN(C5CCN(C(=O)C(C)C)CC5)CC4)cc23)cc1OC` [Example 18, 1-(4-(3-(3,4-dimethoxyphenyl)-1,2-dimethyl-1H-pyrrolo[2,3-c]pyridin-5-yl)-[1,4′-bipiperidin]-1′-yl)-2-methylpropan-1-one] yielded an IC50 of more than 50 µM.

With `COc1ccc(-c2c(C)n(C)c3cnc(C4CCN(C5CCN(C(=O)c6ccccc6)CC5)CC4)cc23)cc1OC` [Example 19, (4-(3-(3,4-dimethoxyphenyl)-1,2-dimethyl-1H-pyrrolo[2,3-c]pyridin-5-yl)-[1,4′-bipiperidin]-1′-yl)(phenyl)methanone], the IC50 was more than 50 µM.

In the case of `CCOC(=O)N1CCC(N2CCC(c3cc4c(-c5ccc(OC)c(OC)c5)c(C)n(C)c4cn3)CC2)CC1` [Example 20, ethyl 4-(3-(3,4-dimethoxyphenyl)-1,2-dimethyl-1H-pyrrolo[2,3-c]pyridin-5-yl)-[1,4′-bipiperidine]-1′-carboxylate], the IC50 was more than 50 µM.

On to `COc1ccc(-c2c(C)[nH]c3cnc(C4CCN(C(=O)CN5CCCC5)CC4)cc23)cc1OC` [Example 21, 1-(4-(3-(3,4-dimethoxyphenyl)-2-methyl-1H-pyrrolo[2,3-c]pyridin-5-yl)piperidin-1-yl)-2-(pyrrolidin-1-yl)ethan-1-one], for which the IC50 was more than 50 µM.

For `COc1ccc(-c2c(C)[nH]c3cnc(C4CCN(C(=O)CN(C)C)CC4)cc23)cc1OC` [Example 22, 1-(4-(3-(3,4-dimethoxyphenyl)-2-methyl-1H-pyrrolo[2,3-c]pyridin-5-yl)piperidin-1-yl)-2-(dimethylamino)ethan-1-one], the IC50 was more than 50 µM.

With `COc1ccc(-c2c(C)[nH]c3cnc(C4CCN(C(=O)CCN5CCCC5)CC4)cc23)cc1OC` [Example 23, 1-(4-(3-(3,4-dimethoxyphenyl)-2-methyl-1H-pyrrolo[2,3-c]pyridin-5-yl)piperidin-1-yl)-3-(pyrrolidin-1-yl)propan-1-one], the IC50 is more than 50 µM.

Take `COc1ccc(-c2cc3cnc(-c4ccc(N5CCN(C(C)C)CC5)cc4)cc3n2C)cc1OC` [Example 24, 2-(3,4-dimethoxyphenyl)-6-(4-(4-isopropylpiperazin-1-yl)phenyl)-1-methyl-1H-pyrrolo[3,2-c]pyridine]: it took 3.8 µM to reach half-maximal inhibition (IC50).

In the case of `COc1ccc(-c2cc3cnc(C4CCN(C(=O)CN5CCCCC5)CC4)cc3n2C)cc1OC` [Example 25, 1-(4-(2-(3,4-dimethoxyphenyl)-1-methyl-1H-pyrrolo[3,2-c]pyridin-6-yl)piperidin-1-yl)-2-(piperidin-1-yl)ethan-1-one], the IC50 was more than 50 µM.

In the case of `COc1ccc(-c2cc3cnc(C4CCN(C5CCN(C(=O)c6ccccc6)CC5)CC4)cc3n2C)cc1OC` [Example 26, (4-(2-(3,4-dimethoxyphenyl)-1-methyl-1H-pyrrolo[3,2-c]pyridin-6-yl)-[1,4′-bipiperidin]-1′-yl)(phenyl)methanone], the IC50 turned out to be 1.2 µM. That is a single-digit micromolar value.

`COc1ccc(-c2cc3cnc(-c4ccc(N5CCN(C)CC5)cc4)cc3n2C)cc1OC` [Example 27, 2-(3,4-dimethoxyphenyl)-1-methyl-6-(4-(4-methylpiperazin-1-yl)phenyl)-1H-pyrrolo[3,2-c]pyridine] displayed an IC50 of 1.5 µM.

In turn, `COc1ccc(-c2cc3cnc(C4CCN(Cc5ccc(C(F)(F)F)nc5)CC4)cc3n2C)cc1OC` [Example 28, 2-(3,4-dimethoxyphenyl)-1-methyl-6-(1-((6-(trifluoromethyl)pyridin-3-yl)methyl)piperidin-4-yl)-1H-pyrrolo[3,2-c]pyridine] returned an IC50 of 20.5 µM.
